Experimental data from ChEMBL document CHEMBL4765434, “Pyrrolo[2,3-d]pyrimidine derivatives as inhibitors of RET: Design, synthesis and biological evaluation” (Eur J Med Chem, 2020).
Active and inactive are the calls of the source. The rule behind the calls is not given here.

Legend:
[1] = biological target: T1, Proto-oncogene tyrosine-protein kinase receptor Ret (Homo sapiens, UniProt P07949); experiment: Inhibition of recombinant human GST-tagged RET cytoplasmic domain (658 to 1114 residues) expressed in baculovirus expression system using 5-FAM-EEPLYWSFPAKKK-CONH2 as substrate preincubated for 60 mins followed by substrate addition by microfluidic assay
T1 sequence (P07949 whole entry, the tested form may be a part): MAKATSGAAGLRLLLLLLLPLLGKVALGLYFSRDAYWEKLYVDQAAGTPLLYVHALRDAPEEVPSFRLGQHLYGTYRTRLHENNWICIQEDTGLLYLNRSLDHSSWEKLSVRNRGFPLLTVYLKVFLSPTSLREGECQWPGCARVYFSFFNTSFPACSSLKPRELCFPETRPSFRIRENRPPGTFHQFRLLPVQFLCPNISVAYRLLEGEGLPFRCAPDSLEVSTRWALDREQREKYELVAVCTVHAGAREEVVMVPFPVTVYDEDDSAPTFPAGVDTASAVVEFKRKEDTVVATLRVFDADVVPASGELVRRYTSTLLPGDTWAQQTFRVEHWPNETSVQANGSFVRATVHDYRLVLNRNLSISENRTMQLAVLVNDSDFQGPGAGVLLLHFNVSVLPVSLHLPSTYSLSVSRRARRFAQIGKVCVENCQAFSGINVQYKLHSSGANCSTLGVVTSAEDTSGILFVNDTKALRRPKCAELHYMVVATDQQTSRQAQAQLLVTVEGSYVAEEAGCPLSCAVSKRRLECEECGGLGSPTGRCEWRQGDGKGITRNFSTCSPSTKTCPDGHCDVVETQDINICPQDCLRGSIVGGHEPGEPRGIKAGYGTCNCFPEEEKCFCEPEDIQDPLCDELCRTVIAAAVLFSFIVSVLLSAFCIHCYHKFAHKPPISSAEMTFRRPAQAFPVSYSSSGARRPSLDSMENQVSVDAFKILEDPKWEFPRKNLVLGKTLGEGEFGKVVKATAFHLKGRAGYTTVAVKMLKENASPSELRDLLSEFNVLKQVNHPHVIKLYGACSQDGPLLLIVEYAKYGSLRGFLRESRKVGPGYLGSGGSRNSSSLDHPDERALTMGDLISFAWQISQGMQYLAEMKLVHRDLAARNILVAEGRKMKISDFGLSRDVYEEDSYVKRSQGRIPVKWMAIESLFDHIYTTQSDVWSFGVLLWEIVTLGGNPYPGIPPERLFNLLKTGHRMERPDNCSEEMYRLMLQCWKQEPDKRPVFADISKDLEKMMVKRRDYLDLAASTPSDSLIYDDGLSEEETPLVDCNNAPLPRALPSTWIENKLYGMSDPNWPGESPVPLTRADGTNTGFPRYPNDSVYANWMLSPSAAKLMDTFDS

[2] = tested on: LC-2-ad; experiment: Inhibition of cell migration in human LC-2-ad cells assessed as migrated distance at 1 uM measured after 52 hrs by microscopic method (reference value: 819.01 +/- 65.76 micrometer); assay type: functional
[3] = tested on: LC-2-ad; experiment: Growth inhibition of human LC-2-ad cells measured after 3 days by resazurin staining based fluorescence assay; assay type: functional; conditions: 72 h, time 3 day
[4] = biological target: Aurora kinase B (Homo sapiens, UniProt Q96GD4); experiment: Inhibition of Aurora B (unknown origin)
Sequence of Aurora kinase B (Q96GD4 whole entry): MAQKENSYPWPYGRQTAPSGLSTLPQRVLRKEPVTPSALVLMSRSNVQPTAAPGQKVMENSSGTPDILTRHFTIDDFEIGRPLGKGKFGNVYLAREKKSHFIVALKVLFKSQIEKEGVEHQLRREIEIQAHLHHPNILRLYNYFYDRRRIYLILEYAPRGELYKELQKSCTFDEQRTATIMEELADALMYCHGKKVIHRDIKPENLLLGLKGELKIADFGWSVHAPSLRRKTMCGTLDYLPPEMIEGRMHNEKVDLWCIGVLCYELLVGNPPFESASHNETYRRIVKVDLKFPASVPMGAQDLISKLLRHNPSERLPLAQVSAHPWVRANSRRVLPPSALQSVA

[5] = biological target: Epidermal growth factor receptor (Homo sapiens, UniProt P00533); experiment: Inhibition of EGFR (unknown origin)
[6] = biological target: Mitogen-activated protein kinase kinase kinase kinase 4 (Homo sapiens, UniProt O95819); experiment: Inhibition of MAP4K4 (unknown origin)
[7] = tested on: LC-2-ad; experiment: Inhibition of cell migration in human LC-2-ad cells assessed as migrated distance at 3 uM measured after 52 hrs by microscopic method (reference value: 819.01 +/- 65.76 micrometer); assay type: functional
[8] = biological target: T2, Serine/threonine-protein kinase Nek2 (Homo sapiens, UniProt P51955); experiment: Inhibition of Nek2 (unknown origin)
T2 sequence (P51955 whole entry): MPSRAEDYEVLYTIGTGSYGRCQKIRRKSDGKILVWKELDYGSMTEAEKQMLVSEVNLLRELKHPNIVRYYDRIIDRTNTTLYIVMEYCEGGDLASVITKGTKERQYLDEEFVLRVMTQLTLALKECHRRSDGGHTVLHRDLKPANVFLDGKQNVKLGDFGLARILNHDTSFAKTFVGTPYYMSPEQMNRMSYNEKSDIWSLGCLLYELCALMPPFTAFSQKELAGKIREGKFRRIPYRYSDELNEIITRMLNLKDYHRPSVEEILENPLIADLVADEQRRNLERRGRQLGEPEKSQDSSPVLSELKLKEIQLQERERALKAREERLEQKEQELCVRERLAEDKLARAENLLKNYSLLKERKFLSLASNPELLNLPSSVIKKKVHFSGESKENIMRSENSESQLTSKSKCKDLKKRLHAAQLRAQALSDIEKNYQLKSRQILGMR

[9] = biological target: Macrophage colony-stimulating factor 1 receptor (Homo sapiens, UniProt P07333); experiment: Inhibition of CSF1R (unknown origin)
Sequence of Macrophage colony-stimulating factor 1 receptor (P07333 whole entry, the tested form may be a part): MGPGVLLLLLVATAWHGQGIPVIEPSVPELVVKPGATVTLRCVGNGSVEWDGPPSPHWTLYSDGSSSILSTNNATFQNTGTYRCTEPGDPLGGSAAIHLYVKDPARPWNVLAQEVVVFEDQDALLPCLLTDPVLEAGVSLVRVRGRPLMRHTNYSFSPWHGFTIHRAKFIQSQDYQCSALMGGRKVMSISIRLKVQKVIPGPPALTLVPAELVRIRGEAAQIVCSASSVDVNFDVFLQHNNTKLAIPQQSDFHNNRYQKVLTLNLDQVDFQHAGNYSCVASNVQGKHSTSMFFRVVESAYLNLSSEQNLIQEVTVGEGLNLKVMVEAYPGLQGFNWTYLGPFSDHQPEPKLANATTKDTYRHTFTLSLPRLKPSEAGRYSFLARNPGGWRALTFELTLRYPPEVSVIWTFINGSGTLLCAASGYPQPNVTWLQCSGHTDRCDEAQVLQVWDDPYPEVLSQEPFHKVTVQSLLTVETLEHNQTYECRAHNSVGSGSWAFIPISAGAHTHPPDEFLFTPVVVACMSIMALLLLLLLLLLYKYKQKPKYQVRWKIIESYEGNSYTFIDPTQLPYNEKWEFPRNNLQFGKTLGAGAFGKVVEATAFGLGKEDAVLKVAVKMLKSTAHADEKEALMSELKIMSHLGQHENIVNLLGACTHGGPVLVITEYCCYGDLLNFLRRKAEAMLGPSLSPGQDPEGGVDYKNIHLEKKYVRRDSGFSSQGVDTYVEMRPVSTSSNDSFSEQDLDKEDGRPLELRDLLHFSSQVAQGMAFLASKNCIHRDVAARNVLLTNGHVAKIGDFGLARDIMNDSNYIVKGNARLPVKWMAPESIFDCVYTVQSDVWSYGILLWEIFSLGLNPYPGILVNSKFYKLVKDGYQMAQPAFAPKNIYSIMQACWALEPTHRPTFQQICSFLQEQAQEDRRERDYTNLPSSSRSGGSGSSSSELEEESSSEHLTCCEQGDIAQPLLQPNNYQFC

[10] = biological target: T1, Proto-oncogene tyrosine-protein kinase receptor Ret; experiment: Non competitive inhibition of recombinant human GST-tagged RET cytoplasmic domain (658 to 1114 residues) expressed in baculovirus expression system at 3.125 to 50 nM using 5-FAM-EEPLYWSFPAKKK-CONH2 as substrate by Lineweaver-burk plot analysis; conditions: dose 3.125-50 nM
[11] = biological target: T3, Aurora kinase A (Homo sapiens, UniProt O14965); experiment: Inhibition of Aurora A (unknown origin)
T3 sequence (O14965 whole entry): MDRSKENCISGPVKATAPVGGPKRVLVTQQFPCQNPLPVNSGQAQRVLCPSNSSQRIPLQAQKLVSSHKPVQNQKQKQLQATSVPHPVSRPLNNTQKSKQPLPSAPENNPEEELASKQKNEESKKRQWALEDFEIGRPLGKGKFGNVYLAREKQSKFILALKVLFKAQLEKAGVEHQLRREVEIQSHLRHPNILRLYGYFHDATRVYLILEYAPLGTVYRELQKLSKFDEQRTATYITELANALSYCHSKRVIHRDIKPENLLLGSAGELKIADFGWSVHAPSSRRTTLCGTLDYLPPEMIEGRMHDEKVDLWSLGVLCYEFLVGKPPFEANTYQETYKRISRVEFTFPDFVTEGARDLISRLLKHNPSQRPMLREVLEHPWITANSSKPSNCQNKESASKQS

[12] = biological target: Mitogen-activated protein kinase kinase kinase 14 (Homo sapiens, UniProt Q99558); experiment: Inhibition of NIK (unknown origin)
Sequence of Mitogen-activated protein kinase kinase kinase 14 (Q99558 whole entry, the tested form may be a part): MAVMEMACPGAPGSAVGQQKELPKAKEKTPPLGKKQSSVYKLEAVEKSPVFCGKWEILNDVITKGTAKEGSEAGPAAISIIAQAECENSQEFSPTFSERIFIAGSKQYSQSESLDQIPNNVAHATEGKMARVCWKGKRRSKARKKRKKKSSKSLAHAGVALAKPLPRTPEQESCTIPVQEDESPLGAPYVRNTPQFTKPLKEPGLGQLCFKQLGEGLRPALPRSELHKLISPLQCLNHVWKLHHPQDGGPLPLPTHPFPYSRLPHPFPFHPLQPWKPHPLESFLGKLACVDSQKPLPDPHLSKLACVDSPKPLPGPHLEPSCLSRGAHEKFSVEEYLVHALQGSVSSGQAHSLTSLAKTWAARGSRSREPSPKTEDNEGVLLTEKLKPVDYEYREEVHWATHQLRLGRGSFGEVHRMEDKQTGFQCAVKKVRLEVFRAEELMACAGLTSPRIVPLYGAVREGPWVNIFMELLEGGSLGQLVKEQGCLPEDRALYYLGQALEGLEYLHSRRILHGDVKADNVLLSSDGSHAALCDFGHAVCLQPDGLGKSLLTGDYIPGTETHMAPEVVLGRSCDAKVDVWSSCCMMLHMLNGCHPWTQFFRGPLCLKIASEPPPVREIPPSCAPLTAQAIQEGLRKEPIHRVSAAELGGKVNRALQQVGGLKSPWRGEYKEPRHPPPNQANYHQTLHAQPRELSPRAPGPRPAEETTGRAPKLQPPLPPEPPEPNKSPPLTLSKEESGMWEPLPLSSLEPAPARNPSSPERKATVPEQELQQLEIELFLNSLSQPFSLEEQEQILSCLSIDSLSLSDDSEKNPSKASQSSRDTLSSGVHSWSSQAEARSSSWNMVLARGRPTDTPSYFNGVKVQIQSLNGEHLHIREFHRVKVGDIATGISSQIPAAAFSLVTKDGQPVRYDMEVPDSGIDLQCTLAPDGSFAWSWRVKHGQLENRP

[13] = biological target: T1, Proto-oncogene tyrosine-protein kinase receptor Ret; experiment: Non ATP-competitive inhibition of recombinant human GST-tagged RET cytoplasmic domain (658 to 1114 residues) expressed in baculovirus expression system at 3.125 to 50 nM using 5-FAM-EEPLYWSFPAKKK-CONH2 as substrate; conditions: dose 3.125-50 nM
[14] = biological target: Proto-oncogene tyrosine-protein kinase receptor Ret (Homo sapiens, UniProt P07949, V804M); experiment: Inhibition of recombinant human N-terminal GST-HIS6 fused RET V804M mutant (658 to 1114 residues) expressed in Sf9 insect cells using 5-FAM-EEPLYWSFPAKKK-CONH2 as substrate preincubated for 60 mins followed by substrate addition by microfluidic assay
Sequence of Proto-oncogene tyrosine-protein kinase receptor Ret (Homo sapiens, UniProt P07949, V804M) (P07949 29-1114 V804M limits assumed): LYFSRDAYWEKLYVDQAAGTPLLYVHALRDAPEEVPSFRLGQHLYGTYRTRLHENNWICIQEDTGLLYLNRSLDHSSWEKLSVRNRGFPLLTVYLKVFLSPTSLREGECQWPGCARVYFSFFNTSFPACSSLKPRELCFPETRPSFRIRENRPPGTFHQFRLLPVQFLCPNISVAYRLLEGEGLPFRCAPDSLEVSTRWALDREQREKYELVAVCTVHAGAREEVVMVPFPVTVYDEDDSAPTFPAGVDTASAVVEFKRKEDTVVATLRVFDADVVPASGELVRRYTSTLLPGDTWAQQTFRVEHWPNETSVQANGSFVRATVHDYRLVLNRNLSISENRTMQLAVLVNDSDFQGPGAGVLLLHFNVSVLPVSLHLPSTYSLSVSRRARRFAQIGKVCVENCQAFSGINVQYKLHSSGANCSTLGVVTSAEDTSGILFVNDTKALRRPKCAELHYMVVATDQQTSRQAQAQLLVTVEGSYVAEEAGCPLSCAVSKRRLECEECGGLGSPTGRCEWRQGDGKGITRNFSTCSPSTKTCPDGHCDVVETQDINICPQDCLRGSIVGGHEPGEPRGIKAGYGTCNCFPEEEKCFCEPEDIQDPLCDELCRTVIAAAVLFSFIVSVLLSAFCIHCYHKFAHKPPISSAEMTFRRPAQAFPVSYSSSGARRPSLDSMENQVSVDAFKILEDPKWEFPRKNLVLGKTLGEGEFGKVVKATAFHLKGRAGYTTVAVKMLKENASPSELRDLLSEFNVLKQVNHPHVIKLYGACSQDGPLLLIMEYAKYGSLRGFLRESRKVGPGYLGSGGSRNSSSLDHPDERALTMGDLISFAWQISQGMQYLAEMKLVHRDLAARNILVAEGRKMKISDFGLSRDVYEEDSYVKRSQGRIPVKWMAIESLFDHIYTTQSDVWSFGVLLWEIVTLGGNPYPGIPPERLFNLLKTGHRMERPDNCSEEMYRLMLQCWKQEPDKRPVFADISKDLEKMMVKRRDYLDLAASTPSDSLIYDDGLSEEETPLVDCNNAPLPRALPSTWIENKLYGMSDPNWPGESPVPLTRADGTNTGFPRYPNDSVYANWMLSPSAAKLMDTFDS

Row | SMILES | IC50 [1] [µM] | other results
1 | COc1cc(NC(=O)Cc2ccc(Nc3ncnc4[nH]ccc34)cc2)cc(OC)c1OC | 47.6 | 
2 | COc1cc2nccc(Oc3ccc(NC(=O)C4(C(=O)Nc5ccc(F)cc5)CC4)cc3)c2cc1OC [CABOZANTINIB] |  | Activity [2]: 287.3 um
3 | CC(C)(C)c1ccc(-c2cc3c(Nc4ccc(CC(=O)Nc5cccc(F)c5)cc4)ncnc3[nH]2)cc1 | > 20 | 
4 | Cn1cc(-c2cc3c(Nc4ccc(CC(=O)Nc5cccc(F)c5)cc4)ncnc3[nH]2)cn1 | > 20 | 
5 | O=C(Cc1ccc(Nc2ncnc3[nH]ccc23)cc1)Nc1cccc(C(F)(F)F)c1 | 16.2 | GI50 [3]: 33.5 µM
6 | COc1ccc(-c2cc3c(Nc4ccc(CC(=O)Nc5cccc(F)c5)cc4)ncnc3[nH]2)cc1 | > 20 | 
7 | O=C(Cc1ccc(Nc2ncnc3[nH]ccc23)cc1)Nc1ccc2c(c1)OCO2 | > 20 | 
8 | Cn1nc(C(C)(C)C)cc1NC(=O)Cc1cccc(Nc2ncnc3[nH]ccc23)c1 | 39.6 | 
9 | O=C(Cc1ccc(Nc2ncnc3sccc23)cc1)Nc1cccc(F)c1 | > 20 | 
10 | CC(C)c1ccc(NC(=O)Cc2ccc(Nc3ncnc4[nH]ccc34)cc2)cc1 | 7.69 | GI50 [3]: 29.6 µM
11 | CC(=O)c1ccc(-c2cc3c(Nc4ccc(CC(=O)Nc5cc(C(C)(C)C)on5)cc4)ncnc3[nH]2)cc1 | 0.044 | 
12 | O=C(Cc1ccc(Nc2ncnc3[nH]ccc23)cc1)Nc1ccc(OC(F)(F)F)cc1 | > 20 | 
13 | CC(C)(C)c1cc(NC(=O)Cc2ccc(Nc3ncnc4sccc34)cc2)no1 | 0.96 | GI50 [3]: 15.2 µM
14 | Cn1nc(C(C)(C)C)cc1NC(=O)Cc1ccc(Nc2ncnc3[nH]ccc23)cc1 | 0.127 | GI50 [3]: 1.65 µM
15 | O=C(Cc1ccc(Nc2ncnc3[nH]ccc23)cc1)NC1CC1 | 2.37 | GI50 [3]: 14 µM
16 | O=C(Cc1ccc(Nc2ncnc3[nH]ccc23)cc1)Nc1ccc(C(F)(F)F)c(Cl)c1 | > 20 | 
17 | Cn1nc(C(C)(C)C)cc1NC(=O)Cc1ccc(Nc2ncnc3[nH]c(-c4ccsc4)cc23)cc1 | 0.052 | 
18 | COc1ccc(-c2cc3c(Nc4ccc(CC(=O)Nc5ccc(F)cc5)cc4)ncnc3[nH]2)cc1 | > 20 | 
19 | O=C(Cc1ccc(Nc2ncnc3[nH]ccc23)cc1)Nc1cccc(F)c1 | > 20 | 
20 | CC(C)(C)c1cc(NC(=O)Cc2ccc(Nc3ncnc4[nH]c(-c5ccc(S(C)(=O)=O)cc5)cc34)cc2)no1 | 0.0068 | IC50 [4]: 0.536 µM; IC50 [5]: 56.8 µM; IC50 [6]: 3.43 µM; Activity [7]: 356.41 um; IC50 [8]: > 200 µM; IC50 [9]: 1.65 µM; inhibition [10]: Active; GI50 [3]: 0.107 µM; IC50 [11]: 0.242 µM; IC50 [12]: > 10 µM; inhibition [13]: Active; IC50 [14]: 0.0135 µM
21 | CC(C)c1ccc(NC(=O)Cc2ccc(Nc3ncnc4[nH]c(-c5cnn(C)c5)cc34)cc2)cc1 | > 20 | 

Row | SMILES | IC50 [1] [µM] | other results
22 | CC(C)(C)c1ccc(-c2cc3c(Nc4ccc(CC(=O)Nc5cc(C(C)(C)C)on5)cc4)ncnc3[nH]2)cc1 | 13.5 | 
23 | Cn1cc(-c2cc3c(Nc4ccc(CC(=O)Nc5cc(C(C)(C)C)on5)cc4)ncnc3s2)cn1 | 0.82 | 
24 | Cn1cc(-c2cc3c(Nc4ccc(CC(=O)Nc5cc(C(C)(C)C)nn5C)cc4)ncnc3[nH]2)cn1 | 0.021 | IC50 [14]: 0.0728 µM
25 | COc1ccc(-c2cc3c(Nc4ccc(CC(=O)Nc5ccc(C(C)C)cc5)cc4)ncnc3[nH]2)cc1 | 2.44 | 
26 | Cn1ccc2c(Nc3ccc(CC(=O)Nc4cc(C(C)(C)C)on4)cc3)ncnc21 | 3.51 | 
27 | CS(=O)(=O)c1ccc(NC(=O)Cc2ccc(Nc3ncnc4[nH]ccc34)cc2)cc1 | > 20 | 
28 | CC(C)(C)c1ccc(NC(=O)Cc2ccc(Nc3ncnc4[nH]ccc34)cc2)cc1 | 15.8 | 
29 | O=C(Cc1ccc(Nc2ncnc3[nH]ccc23)cc1)Nc1cccc2ncccc12 | 19 | 
30 | O=C(Cc1ccc(Nc2ncnc3[nH]ccc23)cc1)NCc1ccccc1 | 4.65 | 
31 | O=C(Cc1ccc(Nc2ncnc3[nH]c(-c4ccsc4)cc23)cc1)Nc1cccc(F)c1 | > 20 | 
32 | Cn1cc(-c2cc3c(Nc4ccc(CC(=O)Nc5cc(C(C)(C)C)on5)cc4)ncnc3[nH]2)cn1 | 0.009 | GI50 [3]: 0.136 µM; IC50 [14]: 0.0635 µM
33 | Cn1nc(C(C)(C)C)cc1NC(=O)Cc1ccc(Nc2ncnc3c2ccn3C)cc1 | 3.93 | GI50 [3]: 36.4 µM
34 | Cn1cc(-c2cc3c(Nc4ccc(CC(=O)Nc5cc(C(C)(C)C)nn5C)cc4)ncnc3s2)cn1 | 1.39 | 
35 | CC(C)(C)c1cc(NC(=O)Cc2ccc(Nc3ncnc4[nH]c(-c5ccsc5)cc34)cc2)no1 | 0.05 | GI50 [3]: 0.18 µM
36 | O=C(Cc1ccc(Nc2ncnc3[nH]ccc23)cc1)NC1CCC1 | 3.91 | 
37 | Cn1nc(C(C)(C)C)cc1NC(=O)Cc1ccc(Nc2ncnc3[nH]c(-c4ccc(S(C)(=O)=O)cc4)cc23)cc1 | 0.009 | 
38 | COc1ccc(-c2cc3c(Nc4ccc(CC(=O)Nc5cc(C(C)(C)C)nn5C)cc4)ncnc3[nH]2)cc1 | 0.12 | 
39 | CC(C)(C)c1cc(NC(=O)Cc2cccc(Nc3ncnc4[nH]ccc34)c2)no1 | 31.6 | GI50 [3]: 43.7 µM
40 | CC(C)(C)c1cc(NC(=O)Cc2ccc(Nc3ncnc4[nH]ccc34)cc2)no1 | 0.076 | GI50 [3]: 1.26 µM
41 | Cn1nc(C(C)(C)C)cc1NC(=O)Cc1ccc(Nc2ncnc3sccc23)cc1 | 1.06 | GI50 [3]: 17.5 µM
